In ChEMBL document CHEMBL1201862, “PubChem BioAssay data set” (2004):
Activity calls are given as the source filed them.

What was measured:
[1] = growth inhibition of yeast DHODH-expressing 3D7 parasites – SYBR Green, dry powder samples, dose response (AID 1159570); type: functional, cell-based;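 also: parasite growth measured after 72 hours of compound exposure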
[2] = toxicity to human HepG2 hepatoma cells – cell-based, plate reader, dry powder samples, cytotoxicity control, dose response (AID 1159569); type: functional;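 also: inhibitor potency with signal falling toward the positive control level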
[3] = P. falciparum Dd2 growth inhibitors, dose response, SYBR Green, cherry-picked samples (AID 1159567); type: functional, cell-based
[4] = Dd2 malaria parasite growth inhibition potency – SYBR Green, dry powder samples, dose response (AID 1159566); type: functional, cell-based;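 also: potency for growth inhibition with lower SYBR green DNA signal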
[5] = Plasmodium falciparum Dd2 Sybr green parasite growth Measured in Cell-Based and Microorganism Combination System Using Plate Reader - 2153-01_Inhibitor_Dose_DryPowder_Activity_Set3.; type: functional
[6] = growth inhibition of PfATP4-mutant resistant parasites – NITD609-resistant line, SYBR Green, dry powder, dose response (AID 1159571); type: functional, cell-based;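 also: parasites synchronized at ring stage by sorbitol before testing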
[7] = biological target: fMet-Leu-Phe receptor (Homo sapiens, UniProt P21462); assay: formyl peptide receptor binders – dose response (AID 519); type: functional
Chain of fMet-Leu-Phe receptor (P21462 whole entry): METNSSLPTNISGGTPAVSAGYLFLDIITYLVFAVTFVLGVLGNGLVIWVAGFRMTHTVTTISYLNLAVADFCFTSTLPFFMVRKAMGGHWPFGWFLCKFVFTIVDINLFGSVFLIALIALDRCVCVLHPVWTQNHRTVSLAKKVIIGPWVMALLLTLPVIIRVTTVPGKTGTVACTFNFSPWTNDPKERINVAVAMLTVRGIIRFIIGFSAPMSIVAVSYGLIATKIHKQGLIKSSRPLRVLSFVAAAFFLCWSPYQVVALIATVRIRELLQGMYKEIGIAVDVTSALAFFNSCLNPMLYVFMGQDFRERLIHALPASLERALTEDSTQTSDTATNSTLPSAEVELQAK

[8] = luciferase reporter signal suppression in cells – H4 neuroglioma cells, luminescence, dose response (AID 1990); type: functional, cell-based
[9] = Luminescence Cell-Based Dose Response HTS to Identify Inhibitors of 5'UTR Stem-Loop Driven Prion Protein mRNA Translation in H4 Neuroglioblastoma Cells. [Related pubchem assays: 1827 (Project Summary), 1813 (Primary HTS)]; type: functional
[10] = alpha-synuclein stem-loop luciferase translation blockers – H4 neuroglioma cells, luminescence, confirmation (AID 1988); type: functional, cell-based
[11] = cells; details: A549
[12] = tested on: BHK-21; assay: viability loss in BHK-21 cells – cell-based, plate reader, cherry-pick samples, cytotoxicity control, dose response (AID 687030); type: functional; details: Mesocricetus auratus
[13] = viability loss in HepG2 hepatoma cells – cell-based, ATP luminescence, dry powder, set 2, cytotoxicity control, dose response (AID 743129); type: functional
[14] = loss of HEK293T viability via ATP – cell-based, plate reader, dry powder, set 10, cytotoxicity control, dose response (AID 743315); type: functional; details: HEK293
[15] = biological target: Paired box protein Pax-8 (Homo sapiens, UniProt Q06710); assay: PAX8 transcriptional activity inhibition in RMG-I – RMG-I cells, luciferase, cherry-pick, dose response (AID 687027); type: functional, cell-based;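 also: luciferase reporter driven by Pax8 target thyroperoxidase promoter measured by SteadyGlo luminescence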
Chain of Paired box protein Pax-8 (Q06710 whole entry): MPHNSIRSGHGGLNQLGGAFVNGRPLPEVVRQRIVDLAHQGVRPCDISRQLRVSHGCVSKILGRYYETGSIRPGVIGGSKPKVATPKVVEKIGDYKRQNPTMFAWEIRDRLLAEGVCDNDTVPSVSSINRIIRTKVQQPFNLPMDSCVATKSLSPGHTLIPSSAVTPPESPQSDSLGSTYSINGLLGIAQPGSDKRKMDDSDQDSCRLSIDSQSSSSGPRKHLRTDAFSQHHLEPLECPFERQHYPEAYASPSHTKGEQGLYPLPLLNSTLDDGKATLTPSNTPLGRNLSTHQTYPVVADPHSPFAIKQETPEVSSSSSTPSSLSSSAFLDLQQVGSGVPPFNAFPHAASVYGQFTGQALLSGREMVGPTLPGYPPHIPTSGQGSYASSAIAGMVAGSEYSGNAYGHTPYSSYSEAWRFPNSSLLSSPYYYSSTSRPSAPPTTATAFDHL

[16] = A2780 cell killing – plate reader, dry powder samples, cytotoxicity control, dose response (AID 743046); type: functional, cell-based
[17] = OVCAR8 cell viability loss – plate reader, dry powder samples, PAX8 project, dose response (AID 743197); type: functional, cell-based; details: OVCAR-8
[18] = biological target: FAD-linked sulfhydryl oxidase ALR (Homo sapiens, UniProt P55789); assay: ALR-catalysed DTT oxidation blockers – biochemical, H2O2 detection, luminescence, cherry-pick, dose response (AID 493248)
Chain of FAD-linked sulfhydryl oxidase ALR (P55789 whole entry): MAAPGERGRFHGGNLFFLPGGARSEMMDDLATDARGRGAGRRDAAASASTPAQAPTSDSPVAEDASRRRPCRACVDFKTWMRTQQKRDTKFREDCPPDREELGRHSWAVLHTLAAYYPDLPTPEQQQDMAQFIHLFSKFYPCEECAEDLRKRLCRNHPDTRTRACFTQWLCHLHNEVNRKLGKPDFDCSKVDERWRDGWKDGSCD

[19] = biological target: SWI/SNF-related matrix-associated actin-dependent regulator of chromatin subfamily A member 2 (Homo sapiens, UniProt P51531); assay: Luminescence-based cell-based high throughput dose response assay to identify activators of the function of SWI/SNF related, matrix associated, actin dependent regulator of chromatin, subfamily a, member 2 (SMARCA2, BRM).; type: functional
Chain of SWI/SNF-related matrix-associated actin-dependent regulator of chromatin subfamily A member 2 (P51531 whole entry): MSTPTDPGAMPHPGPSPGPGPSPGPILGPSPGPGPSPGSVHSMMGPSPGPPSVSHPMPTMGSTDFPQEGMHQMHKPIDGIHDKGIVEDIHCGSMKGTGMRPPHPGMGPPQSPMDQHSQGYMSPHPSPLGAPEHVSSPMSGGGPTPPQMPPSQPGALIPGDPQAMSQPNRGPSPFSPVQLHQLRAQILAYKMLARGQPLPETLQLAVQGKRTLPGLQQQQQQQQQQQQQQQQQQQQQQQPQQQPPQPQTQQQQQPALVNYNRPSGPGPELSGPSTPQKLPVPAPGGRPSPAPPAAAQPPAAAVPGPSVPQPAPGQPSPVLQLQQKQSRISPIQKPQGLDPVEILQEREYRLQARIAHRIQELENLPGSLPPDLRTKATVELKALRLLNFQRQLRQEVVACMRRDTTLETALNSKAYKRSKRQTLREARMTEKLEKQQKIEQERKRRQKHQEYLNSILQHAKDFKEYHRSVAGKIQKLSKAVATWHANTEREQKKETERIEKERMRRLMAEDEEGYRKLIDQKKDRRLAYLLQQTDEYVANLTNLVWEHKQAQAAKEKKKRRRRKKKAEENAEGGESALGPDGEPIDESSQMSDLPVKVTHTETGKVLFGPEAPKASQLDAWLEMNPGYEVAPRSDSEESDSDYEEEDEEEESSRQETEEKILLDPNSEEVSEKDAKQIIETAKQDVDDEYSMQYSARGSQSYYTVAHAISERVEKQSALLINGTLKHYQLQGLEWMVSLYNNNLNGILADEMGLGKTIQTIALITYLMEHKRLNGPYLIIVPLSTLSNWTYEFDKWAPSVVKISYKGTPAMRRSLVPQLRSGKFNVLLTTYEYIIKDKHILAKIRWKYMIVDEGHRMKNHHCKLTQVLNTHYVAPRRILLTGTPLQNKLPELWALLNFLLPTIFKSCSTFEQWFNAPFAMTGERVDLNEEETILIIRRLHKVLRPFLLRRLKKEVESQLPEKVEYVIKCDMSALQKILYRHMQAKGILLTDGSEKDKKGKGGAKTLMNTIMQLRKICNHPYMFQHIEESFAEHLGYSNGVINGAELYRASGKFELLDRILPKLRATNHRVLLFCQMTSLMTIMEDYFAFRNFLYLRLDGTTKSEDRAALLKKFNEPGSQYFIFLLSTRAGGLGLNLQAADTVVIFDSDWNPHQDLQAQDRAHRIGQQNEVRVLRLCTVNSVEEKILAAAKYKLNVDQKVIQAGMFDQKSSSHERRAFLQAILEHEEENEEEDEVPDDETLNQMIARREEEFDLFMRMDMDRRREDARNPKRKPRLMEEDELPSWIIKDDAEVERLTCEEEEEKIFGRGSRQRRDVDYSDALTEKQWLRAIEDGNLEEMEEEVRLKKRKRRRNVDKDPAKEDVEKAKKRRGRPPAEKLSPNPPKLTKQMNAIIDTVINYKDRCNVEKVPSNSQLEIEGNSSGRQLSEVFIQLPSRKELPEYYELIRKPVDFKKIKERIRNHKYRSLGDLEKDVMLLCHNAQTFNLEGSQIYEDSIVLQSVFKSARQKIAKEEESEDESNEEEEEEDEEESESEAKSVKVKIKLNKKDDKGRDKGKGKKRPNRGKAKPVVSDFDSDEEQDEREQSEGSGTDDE

[20] = Counterscreen for activators of the function of SWI/SNF related, matrix associated, actin dependent regulator of chromatin, subfamily a, member 2 (SMARCA2, BRM): Luminescence-based cell-based high throughput dose response assay to identify non-selective compounds using the VP16 reporter assay.; type: functional
[21] = inhibitors acting on PAX2 in cells – cell-based, plate reader, dry powder samples, selectivity assay for PAX8 inhibitor project, dose response (AID 743048); type: functional;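 also: HEK293 cells carrying a WT1 promoter luciferase reporter driven by expressed Pax2; potency is for inhibition of Pax2 driven reporter signal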
[22] = PAX5 cellular inhibition readout – cell-based, plate reader, dry powder samples, selectivity assay for PAX8 inhibitor project, dose response (AID 743047); type: functional;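 also: HEK293 cells carrying a Pax5 driven CD19 promoter luciferase reporter; potency of inhibitors that lower reporter luminescence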
[23] = COV434 cell viability loss – plate reader, dry powder, SA7, cytotoxicity control for PAX8 inhibitor project, dose response (AID 743145); type: functional, cell-based
[24] = PAX8-dependent cell viability loss – plate reader, dry powder, dose response (AID 743049); type: functional, cell-based
[25] = biological target: Apoptotic protease-activating factor 1 (Homo sapiens, UniProt O14727); type: functional
Chain of Apoptotic protease-activating factor 1 (O14727 whole entry): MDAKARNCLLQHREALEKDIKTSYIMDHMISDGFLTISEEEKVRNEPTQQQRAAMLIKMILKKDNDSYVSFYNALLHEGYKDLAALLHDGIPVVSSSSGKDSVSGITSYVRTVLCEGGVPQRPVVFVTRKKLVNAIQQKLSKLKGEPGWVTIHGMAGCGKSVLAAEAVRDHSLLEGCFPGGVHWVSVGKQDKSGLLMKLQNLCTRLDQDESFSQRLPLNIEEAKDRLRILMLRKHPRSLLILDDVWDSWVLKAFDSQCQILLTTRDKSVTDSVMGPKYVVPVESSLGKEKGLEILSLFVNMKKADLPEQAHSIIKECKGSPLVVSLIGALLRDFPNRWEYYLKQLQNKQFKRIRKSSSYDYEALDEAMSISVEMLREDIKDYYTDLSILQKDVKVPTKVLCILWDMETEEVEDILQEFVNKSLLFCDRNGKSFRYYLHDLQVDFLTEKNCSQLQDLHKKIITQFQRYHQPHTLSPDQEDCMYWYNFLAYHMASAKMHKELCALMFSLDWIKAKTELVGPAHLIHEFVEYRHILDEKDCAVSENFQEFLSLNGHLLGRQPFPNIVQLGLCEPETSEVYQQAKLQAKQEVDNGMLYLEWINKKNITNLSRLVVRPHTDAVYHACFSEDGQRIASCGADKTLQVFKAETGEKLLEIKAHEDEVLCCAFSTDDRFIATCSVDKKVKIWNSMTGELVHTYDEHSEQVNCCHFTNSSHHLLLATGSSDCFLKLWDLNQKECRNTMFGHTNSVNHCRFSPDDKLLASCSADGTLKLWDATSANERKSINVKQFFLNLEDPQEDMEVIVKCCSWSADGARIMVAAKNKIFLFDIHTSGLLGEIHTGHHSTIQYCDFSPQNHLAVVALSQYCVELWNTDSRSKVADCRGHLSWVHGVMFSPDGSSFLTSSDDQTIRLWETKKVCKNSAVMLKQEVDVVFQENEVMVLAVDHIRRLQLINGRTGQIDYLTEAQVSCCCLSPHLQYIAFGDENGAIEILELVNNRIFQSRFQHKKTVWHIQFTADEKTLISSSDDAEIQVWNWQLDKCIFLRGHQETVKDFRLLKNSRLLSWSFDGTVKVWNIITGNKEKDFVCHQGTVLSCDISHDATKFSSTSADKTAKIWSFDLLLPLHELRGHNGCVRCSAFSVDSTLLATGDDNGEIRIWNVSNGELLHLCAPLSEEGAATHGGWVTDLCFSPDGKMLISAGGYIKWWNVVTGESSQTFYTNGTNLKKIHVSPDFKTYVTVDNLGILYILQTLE

[26] = biological target: Histone-lysine N-methyltransferase NSD2 (Homo sapiens, UniProt O96028); type: biochemical
[27] = microbe, parasite or virus in culture; type: functional; details: Mycobacterium tuberculosis
[28] = biological target: T1, Ubiquitin-conjugating enzyme E2 N (Homo sapiens, UniProt P61088); type: functional;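 also: Dose-response confirmation in a TR-FRET assay detecting UBC13-driven polyubiquitin chain formation, inhibition measured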
T1 sequence (P61088 whole entry): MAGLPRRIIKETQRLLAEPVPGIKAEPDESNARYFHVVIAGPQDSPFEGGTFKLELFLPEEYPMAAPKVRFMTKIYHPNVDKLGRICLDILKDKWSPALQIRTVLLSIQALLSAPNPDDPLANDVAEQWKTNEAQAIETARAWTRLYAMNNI

[29] = biological target: RNA-editing ligase 1, mitochondrial (Trypanosoma brucei brucei, UniProt P86926); assay: inhibition of trypanosome RNA editing ligase – biochemical, fluorescence, Trypanosoma brucei, dose response (AID 1117295); type: functional
Chain of RNA-editing ligase 1, mitochondrial (P86926 whole entry): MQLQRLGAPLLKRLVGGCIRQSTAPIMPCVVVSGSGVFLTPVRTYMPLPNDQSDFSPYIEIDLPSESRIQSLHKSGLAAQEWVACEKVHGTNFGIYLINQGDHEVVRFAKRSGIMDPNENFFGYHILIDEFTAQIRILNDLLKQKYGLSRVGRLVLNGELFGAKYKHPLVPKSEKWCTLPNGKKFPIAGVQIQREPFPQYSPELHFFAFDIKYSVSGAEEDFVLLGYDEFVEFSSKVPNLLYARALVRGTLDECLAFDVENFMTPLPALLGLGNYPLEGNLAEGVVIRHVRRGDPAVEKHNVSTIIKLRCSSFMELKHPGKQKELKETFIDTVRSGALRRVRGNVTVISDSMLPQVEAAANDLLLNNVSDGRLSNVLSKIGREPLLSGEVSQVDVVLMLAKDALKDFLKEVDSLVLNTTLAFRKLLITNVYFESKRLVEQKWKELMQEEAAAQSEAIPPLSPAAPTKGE

[30] = T. cruzi growth inhibition in host cells, dose response, cell-based, plate reader, dry powder, set 2 (AID 652275); type: functional
[31] = anti-trypanosomal activity in BESM host cells – imaging, CA-I/72 strain, bovine embryo skeletal muscle, dry powder, dose response (AID 651885); type: functional, cell-based
[32] = CellTiter-Glo luminescence survival assay, SW480 colon tumor line, concentration-response curve, half-maximal inhibitory concentration (AID 1117338); type: functional
[33] = RKO cell viability reduction, dose response, CellTiter-Glo luminescence (AID 1117322); type: functional
[34] = cytotoxicity toward HCT116 cells – cell-based, CellTiter-Glo luminescence, IC50, dose response (AID 1117332); type: functional; details: HCT-116
[35] = SNU-C1 cell viability reduction, dose response, CellTiter-Glo luminescence (AID 1117323); type: functional, cell-based
[36] = cytotoxicity toward Colo320 cells – cell-based, CellTiter-Glo luminescence, IC50, dose response (AID 1117334); type: functional; details: COLO 320
[37] = cytotoxicity toward HT-29 cells – cell-based, CellTiter-Glo luminescence, IC50, dose response (AID 1117330); type: functional
[38] = Reduced DLD-1 viability, concentration-response, CellTiter-Glo luminescence (AID 1117352); type: functional
[39] = HCT116 cell viability decrease, GSK3B pretreatment – CellTiter-Glo, IC50, dose response (AID 1117339); type: functional; details: HCT-116
[40] = Late stage assay provider results from the probe development effort to identify selective inhibitors of heat shock protein 90 (HSP90): Absorbance-based cell proliferation assay in SKBR3 cells.; type: functional; details: SK-BR-3
[41] = Late stage assay provider results from the probe development effort to identify selective inhibitors of heat shock protein 90 (HSP90): Absorbance-based cell proliferation assay in MCF7 cells.; type: functional

Which results are given for `CCCNC(=O)N1[C@H](C#N)[C@H](c2ccc(C3=CCCCC3)cc2)[C@H]1CO`?
AC50 [1]: 18.3 µM (active); AC50 [2]: > 100 µM (inactive); AC50 [3]: 0.424 µM (active); AC50 [4]: 0.113 µM (active); AC50 [5]: 0.374 µM (active); AC50 [6]: 0.163 µM (active)

For `Cc1ccc(C(=O)C2=C(O)C(=O)N(Cc3ccccc3)C2c2cccnc2)o1` (stereo not drawn), which Ki [7] is on record?
The Ki was > 66.7 µM (inactive).

Which results are given for `CCC(=O)NCCCNc1nc2c(C)cccc2cc1C#N`?
EC50 [8]: 25.9 µM (active); EC50 [9]: > 120 µM (not active); EC50 [10]: > 120 µM (not active); AC50 [11]: > 52 µM (inactive)

Which AC50 [12] does the source give for `NNC(=O)c1ccc(-c2ccccc2F)cc1` here?
The AC50 was 19.3 µM (active).

Which results are given for `Cc1ccc(OCCn2c(SCCO)nc3ccccc32)c(C(C)C)c1`?
AC50 [13]: 50.8 µM (active); AC50 [14]: 31.2 µM (active)

What does the source list for `COc1ccc2c3c(n(C)c2c1)[C@H](CO)N(C(=O)Nc1ccc(F)cc1)CC31CCN(S(=O)(=O)c2cccc(C)c2)CC1`?
AC50 [15]: 7.72 µM (active); AC50 [16]: 38.8 µM (active); AC50 [17]: 58 µM (active)

With `COc1ccc(-n2nnnc2S(=O)(=O)Cc2ccc(C(=O)O)cc2)cc1` as the compound, how does the AC50 [18] read?
The AC50 was 0.038 µM (active).

And the EC50 [19]?
Its EC50 is > 91.2 µM (inactive).

And the EC50 [20]?
The EC50 was > 91.2 µM (inactive).

Which AC50 [15] does the source give for `CCCC#Cc1ccc([C@@H]2[C@@H](C#N)N(S(=O)(=O)c3cccc(F)c3)[C@H]2CO)cc1` here?
Its AC50 is 5.96 µM (active).

What about the AC50 [21] of the same compound?
The AC50 was 28.2 µM (active).

What about the AC50 [22] of the same compound?
The AC50 was 24.2 µM (active).

And the AC50 [23]?
The AC50 was > 70 µM (inactive).

What about the AC50 [17] of the same compound?
Its AC50 is 43.1 µM (active).

What about the AC50 [24] of the same compound?
The AC50 was 37 µM (active).

Which IC50 [25] does the source give for `O=C1C(Cl)=C(NCCN2CCOCC2)C(=O)c2ccccc21` here?
Its IC50 is 22 µM (active).

What about the AC50 [26] of the same compound?
Its AC50 is 10.8 µM (active).

Which CC50 [27] does the source give for `COc1ccc(C[C@H]2CN3C(=NC[C@H]3Cc3ccccc3)N2CCNC(=O)CCC2CCCCC2)cc1` here?
Its CC50 is 23.8 µM (active).

And the IC50 [28]?
Its IC50 is > 20 µM (inactive).

And the IC50 [29]?
Its IC50 is > 96.6 µM (inactive).

With `C[C@@H]1CN([C@@H](C)CO)C(=O)c2cccc(NC(=O)c3cnccn3)c2O[C@H]1CN(C)Cc1ccc(Oc2ccccc2)cc1` as the compound, how does the AC50 [30] read?
Its AC50 is 1.96 µM (active).

And the IC50 [31]?
Its IC50 is > 20 µM (inactive).

Which IC50 [32] does the source give for `CC=CC1C(C(=O)OCc2c(F)c(F)c(COC)c(F)c2F)C1(C)C` (stereo not drawn) here?
The IC50 was > 20 µM (inactive).

What about the IC50 [33] of the same compound?
The IC50 was > 20 µM (inactive).

And the IC50 [34]?
The IC50 was > 20 µM (inactive).

And the IC50 [35]?
Its IC50 is > 20 µM (inactive).

What about the IC50 [36] of the same compound?
The IC50 was > 20 µM (inactive).

And the IC50 [37]?
The IC50 was > 20 µM (inactive).

What about the IC50 [38] of the same compound?
The IC50 was > 20 µM (inactive).

And the IC50 [39]?
The IC50 was > 20 µM (inactive).

For `COc1ccccc1NC(=O)c1ccc(=O)oc1`, which IC50 [40] is on record?
The IC50 was 33.1 µM (inactive).

And the IC50 [41]?
The IC50 was 30.2 µM (inactive).
